From paper PMC6299481, “Deciphering the Evolution of Cephalosporin Resistance to Ceftolozane-Tazobactam in Pseudomonas aeruginosa” (mBio, 2018)

Legend:
PDC-3 β-lactamase [1] = target: T1, PDC-3 β-lactamase (Pseudomonas aeruginosa, UniProt P24735, T105A); experiment: BATSI inhibition kinetics (IC50), nitrocefin reporter; format: biochemical; details: PDC-3 (1.5 nM); 5-min preincubation; 100 μM nitrocefin reporter substrate
T1 construct: produces the corresponding PDC-3 protein without its signal peptide; made in house; host or cells: E. coli Origami 2 DE3, pET24a (+) blaPDC-3
T1 sequence (P24735 27-397 T105A): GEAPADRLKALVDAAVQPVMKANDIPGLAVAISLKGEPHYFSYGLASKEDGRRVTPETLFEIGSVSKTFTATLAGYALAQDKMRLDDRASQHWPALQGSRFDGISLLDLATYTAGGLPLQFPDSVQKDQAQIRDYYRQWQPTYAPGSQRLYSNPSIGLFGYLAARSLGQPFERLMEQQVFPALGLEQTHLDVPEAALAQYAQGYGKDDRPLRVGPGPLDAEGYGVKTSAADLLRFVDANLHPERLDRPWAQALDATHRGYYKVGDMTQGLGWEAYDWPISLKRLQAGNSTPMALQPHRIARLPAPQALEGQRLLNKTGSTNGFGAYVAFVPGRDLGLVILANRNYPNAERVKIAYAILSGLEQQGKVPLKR
Protocol: (§1) Because of the time-dependent inhibition observed previously with some of the chiral boronates ([43]), the BATSIs were preincubated with enzyme for 5 min in phosphate-buffered saline before initiation of the reaction with the addition of substrate. The initial velocity (0 to 10 s) was measured in the presence of a constant concentration of enzyme (1.5 nM PDC-3 and 20 nM E221K) and increasing concentrations of the inhibitors against the fixed concentration (100 μM) of the indicator substrate, nitrocefin. The IC50 is the concentration of inhibitor that reduces the velocity by 50%. IC50 values were determined by fitting the initial velocity (v0) measurements to equation 2.(2) v0= Vmax[S]/Km[1+ I/IC50]+[S]

[2] = target: T2, E221K variant of PDC-3 β-lactamase (Pseudomonas aeruginosa, UniProt P24735, E247K/T105A); experiment: as above; format: biochemical; details: E221K (20 nM); 5-min preincubation; 100 μM nitrocefin reporter substrate
T2 construct: produces the corresponding PDC-3 protein without its signal peptide; made in house; host or cells: E. coli Origami 2 DE3, pET24a (+) blaPDC-3-E221K
T2 sequence (P24735 27-397 T105A/E247K): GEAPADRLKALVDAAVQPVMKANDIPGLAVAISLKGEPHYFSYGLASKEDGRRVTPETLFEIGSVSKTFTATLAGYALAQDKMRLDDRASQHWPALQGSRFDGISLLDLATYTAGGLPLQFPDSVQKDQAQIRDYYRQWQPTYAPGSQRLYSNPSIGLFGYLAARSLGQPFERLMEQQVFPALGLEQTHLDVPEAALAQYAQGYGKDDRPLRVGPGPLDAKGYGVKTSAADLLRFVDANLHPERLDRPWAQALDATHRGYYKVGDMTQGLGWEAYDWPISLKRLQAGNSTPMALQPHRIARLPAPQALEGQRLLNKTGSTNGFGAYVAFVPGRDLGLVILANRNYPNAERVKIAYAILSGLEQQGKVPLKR
Protocol: as §1

PDC-3 β-lactamase [3] = target: T1, PDC-3 β-lactamase; experiment: Thermal denaturation by circular dichroism; format: binding; details: 10 μM PDC-3 with 200 μM inhibitor; CD, 20 to 80°C
Protocol: (§2) Circular dichroism (CD) experiments were carried out in a Jasco (Easton, MD) J-815 spectrometer with a Peltier effect temperature controller. Quartz cells with a 0.1-cm path length were used for all experiments.
(§3) PDC-3 enzyme and the E221K variant (10 μM) with or without S02030 or LP-06 (200 μM) were monitored for thermal denaturation by CD at λ215 and λ221 between 20 and 80°C with a heating rate of 2°C/min. Two-state behavior was indicated by identical curves at each wavelength. Raw equilibrium denaturation data were normalized to the fraction of denatured protein (fU). With the assumption of a reversible two-state transition (N ↔ U), equilibrium constants (Keq) at any given temperature were calculated, as previously described ([32]), using equation 4 (4) Keq=fU/(1−fU)
(§4) The melting temperature Tm was determined at the midpoint of equilibrium folding (T = Tm) when ΔG = 0. (5) ln Keq=1/T (−ΔH/R)+ΔS/R
(§5) The free energy of unfolding was determined as previously described using the equation ΔΔGu = ΔTmΔSu^PDC-3 (Schellman), where ΔSu^PDC-3 = 0.326 ± 0.02 Kcal mol^−1 K^−1.

[4] = target: T2, E221K variant of PDC-3 β-lactamase; experiment: Thermal denaturation by circular dichroism; format: binding; details: 10 μM E221K with 200 μM inhibitor; CD, 20 to 80°C
Protocol: as §2, §3, §4, §5

[5] = tested on: E. coli DH10B pBC SK blaPDC-3 E221K; experiment: MIC, MH agar dilution (CLSI); format: cell-based, Escherichia coli; details: strain expressing E221K, highest MICs among variant strains
Protocol: Variant genes were synthesized into the pBC SK (-) vector by Celtek Bioscience (Franklin, TN). Mueller-Hinton (MH) agar-dilution MIC measurements were performed against isogenic transformants producing PDC-3 and nine variants of PDC-3 in pBC SK (-) according to the Clinical and Laboratory Standards Institute (CLSI) guidelines as previously described ([39], [48]). Avibactam, LP-06, and S02030 were tested at a constant 4 µg/ml in combination with various concentrations of ceftazidime. Piperacillin-tazobactam was maintained at a ratio of 8 piperacillin to 1 tazobactam. Ceftolozane-tazobactam was maintained at a ratio of 2 ceftolozane to 1 tazobactam. The MICs are reported as the concentrations at which bacterial growth was no longer observed. All MIC measurements were performed at least three times.

Compound: O=C(Cc1cccs1)N[C@@H](Cn1cc(C(=O)O)nn1)B(O)O [S02030]
- IC50 (PDC-3 β-lactamase [1]): 62 ± 2 nM
- IC50 [2]: 769 ± 30 nM
- increase in thermal stability (Tm) on inhibitor binding (PDC-3 β-lactamase [3]): 6 °C
- increase in thermal stability (Tm) on inhibitor binding [4]: 3 to 4 °C
- MICs of ceftolozane and ceftazidime combined with BATSI [5]: 8 to 16 mg/L
